According to US11174268B2, “Benzenesulfonamide compouds and their use as therapeutic agents” (Xenon Pharmaceuticals Inc., priority 2016, dated 2021):
Where a name gives a salt, the structure may show the parent alone.

Assays:
NaV1.6 = NaV1.6 (Homo sapiens (Human), UniProt Q9UQD0); assay: Sodium Influx Assay (Flux), NaV1.6; format: cell-based; conditions: Trex HEK293 cells, ANG2 dye, inactivated state;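 further: Tetracycline-induced cells, compounds applied for one hour at room temperature with modulators holding channels open, IC50 from percent inhibition of sodium influx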
NaV1.1 = NaV1.1 (Homo sapiens (Human), UniProt P35498); assay: Sodium Influx Assay (Flux), NaV1.1; format: cell-based; conditions: Trex HEK293 cells, ANG2 dye, inactivated state;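 further: channels co-expressed with human β1 subunit and held open by modulators, cells exposed to compounds for one hour at room temperature, IC50 from percent inhibition of influx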
NaV1.5 = NaV1.5 (Homo sapiens (Human), UniProt Q14524); assay: Sodium Influx Assay (Flux), NaV1.5; conditions: read-out: Flux NaV1.5 IC50; Trex HEK293 cells, ANG2 dye, inactivated state
Sequence of NaV1.5 (Q14524 other isoform, or with tags, fused parts or gaps): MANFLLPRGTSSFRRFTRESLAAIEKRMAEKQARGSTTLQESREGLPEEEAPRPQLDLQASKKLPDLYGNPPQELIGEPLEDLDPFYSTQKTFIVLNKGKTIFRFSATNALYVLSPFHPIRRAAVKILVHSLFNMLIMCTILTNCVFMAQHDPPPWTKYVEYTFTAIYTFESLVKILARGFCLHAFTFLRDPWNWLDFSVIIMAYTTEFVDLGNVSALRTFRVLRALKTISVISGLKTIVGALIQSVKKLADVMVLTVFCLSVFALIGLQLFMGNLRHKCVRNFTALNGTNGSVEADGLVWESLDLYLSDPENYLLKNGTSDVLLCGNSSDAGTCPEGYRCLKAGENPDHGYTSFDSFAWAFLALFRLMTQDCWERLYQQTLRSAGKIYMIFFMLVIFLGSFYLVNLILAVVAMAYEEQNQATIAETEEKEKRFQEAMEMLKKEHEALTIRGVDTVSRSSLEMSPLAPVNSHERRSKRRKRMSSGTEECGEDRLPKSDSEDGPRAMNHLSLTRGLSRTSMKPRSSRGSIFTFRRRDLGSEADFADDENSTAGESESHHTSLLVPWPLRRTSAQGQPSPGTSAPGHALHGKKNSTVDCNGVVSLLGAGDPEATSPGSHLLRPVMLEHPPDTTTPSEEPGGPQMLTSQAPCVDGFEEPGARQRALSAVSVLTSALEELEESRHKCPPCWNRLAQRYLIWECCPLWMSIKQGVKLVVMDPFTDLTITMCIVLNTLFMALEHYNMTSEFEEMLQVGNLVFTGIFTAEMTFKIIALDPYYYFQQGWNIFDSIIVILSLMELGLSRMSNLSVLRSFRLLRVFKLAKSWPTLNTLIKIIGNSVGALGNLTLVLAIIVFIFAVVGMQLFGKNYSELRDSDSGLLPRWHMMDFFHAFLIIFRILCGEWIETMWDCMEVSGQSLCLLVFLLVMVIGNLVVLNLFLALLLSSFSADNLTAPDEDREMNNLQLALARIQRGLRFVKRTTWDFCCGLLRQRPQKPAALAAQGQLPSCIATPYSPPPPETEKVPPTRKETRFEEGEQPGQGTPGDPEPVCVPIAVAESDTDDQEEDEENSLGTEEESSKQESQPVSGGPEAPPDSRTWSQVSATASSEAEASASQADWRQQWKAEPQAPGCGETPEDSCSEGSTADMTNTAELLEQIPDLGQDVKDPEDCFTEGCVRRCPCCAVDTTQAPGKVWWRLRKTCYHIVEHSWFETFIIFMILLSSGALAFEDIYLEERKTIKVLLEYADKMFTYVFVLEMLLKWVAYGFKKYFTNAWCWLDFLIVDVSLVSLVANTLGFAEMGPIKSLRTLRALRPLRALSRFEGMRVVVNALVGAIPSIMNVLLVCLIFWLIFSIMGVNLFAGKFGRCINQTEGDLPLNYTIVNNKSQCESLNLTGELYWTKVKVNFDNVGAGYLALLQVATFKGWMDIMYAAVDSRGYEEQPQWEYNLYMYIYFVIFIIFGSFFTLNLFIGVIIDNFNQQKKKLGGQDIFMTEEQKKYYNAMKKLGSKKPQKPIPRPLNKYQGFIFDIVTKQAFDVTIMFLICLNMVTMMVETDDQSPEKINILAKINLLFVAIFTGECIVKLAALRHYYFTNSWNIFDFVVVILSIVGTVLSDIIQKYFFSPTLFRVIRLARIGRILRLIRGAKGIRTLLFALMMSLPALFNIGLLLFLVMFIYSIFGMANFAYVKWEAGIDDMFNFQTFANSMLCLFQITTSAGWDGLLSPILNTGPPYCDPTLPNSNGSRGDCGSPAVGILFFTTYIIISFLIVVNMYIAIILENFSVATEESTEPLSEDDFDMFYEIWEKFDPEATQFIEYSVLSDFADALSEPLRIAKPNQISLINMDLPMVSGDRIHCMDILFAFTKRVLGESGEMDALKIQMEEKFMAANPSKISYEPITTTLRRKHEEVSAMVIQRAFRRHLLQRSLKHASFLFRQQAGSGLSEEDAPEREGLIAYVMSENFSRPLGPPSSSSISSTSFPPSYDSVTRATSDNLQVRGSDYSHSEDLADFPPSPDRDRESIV

IC50 (NaV1.6) | IC50 (NaV1.1) | SMILES | IC50 (NaV1.5)
1.66 µM | 0.999 µM | O=S(=O)(Nc1nccs1)c1cc(Cl)c(N[C@H]2CCCc3ccccc32)cc1F [Example 46, (S)-5-chloro-2-fluoro-4-((1,2,3,4-tetrahydronaphthalen-1-yl)amino)-N-(thiazol-2-yl)benzenesulfonamide] | 7.04 µM
0.169 µM | 1.28 µM | C[C@H](Nc1cc(F)c(S(=O)(=O)Nc2nccs2)cc1Cl)c1cccc(Cl)c1 [Example 50, (S)-5-chloro-4-((1-(3-chlorophenyl)ethyl)amino)-2-fluoro-N-(thiazol-2-yl)benzenesulfonamide] | 6.07 µM
10.8 µM | 4.27 µM | C[C@H](Nc1cc(F)c(S(=O)(=O)Nc2nccs2)cc1Cl)c1cc(Cl)cc(Cl)c1 [Example 51, (S)-5-chloro-4-((1-(3,5-dichlorophenyl)ethyl)amino)-2-fluoro-N-(thiazol-2-yl)benzenesulfonamide] | 20.6 µM
0.741 µM | 0.726 µM | C[C@H](Nc1cc(F)c(S(=O)(=O)Nc2nccs2)cc1Cl)c1ccc(F)c(F)c1 [Example 53, (S)-5-chloro-4-((1-(3,4-difluorophenyl)ethyl)amino)-2-fluoro-N-(thiazol-2-yl)benzenesulfonamide] | 6.89 µM
20.7 µM | 16.1 µM | CCC(Nc1cc(F)c(S(=O)(=O)Nc2nccs2)cc1Cl)c1ccc2c(c1)CCCC2 (stereo not drawn) [Example 55, 5-chloro-2-fluoro-4-((1-(5,6,7,8-tetrahydronaphthalen-2-yl)propyl)amino)-N-(thiazol-2-yl)benzenesulfonamide] | 21.3 µM
0.152 µM | 2.53 µM | CCC(Nc1cc(F)c(S(=O)(=O)Nc2nccs2)cc1Cl)c1cccnc1 (stereo not drawn) [Example 58, 5-chloro-2-fluoro-4-((1-(pyridin-3-yl)propyl)amino)-N-(thiazol-2-yl)benzenesulfonamide] | 7.09 µM
3.34 µM | 1.57 µM | CCC(Nc1cc(F)c(S(=O)(=O)Nc2nccs2)cc1Cl)c1ccncc1 (stereo not drawn) [Example 60, 5-chloro-2-fluoro-4-((1-(pyridin-4-yl)propyl)amino)-N-(thiazol-2-yl)benzenesulfonamide] | 30 µM
1.81 µM | 5.15 µM | O=S(=O)(Nc1nccs1)c1cc(Cl)c(N[C@H](CN2CC(F)C2)c2ccccc2)cc1F [Example 68, (S)-5-chloro-4-((2-(3-fluoroazetidin-1-yl)-1-phenylethyl)amino)-2-fluoro-N-(thiazol-2-yl)benzenesulfonamide 2,2,2-trifluoroacetate] | 25.3 µM
1.59 µM | 3.03 µM | O=S(=O)(Nc1nccs1)c1cc(Cl)c(N[C@H](CN2CC(F)(F)C2)c2ccccc2)cc1F [Example 69, (S)-5-chloro-4-((2-(3,3-difluoroazetidin-1-yl)-1-phenylethyl)amino)-2-fluoro-N-(thiazol-2-yl)benzenesulfonamide] | 7.66 µM
30 µM | 30 µM | O=S(=O)(Nc1nccs1)c1cc(Cl)c(N[C@@H](CN2CCCC2)c2ccccc2)cc1F [Example 71, (R)-5-chloro-2-fluoro-4-((1-phenyl-2-(pyrrolidin-1-yl)ethyl)amino)-N-(thiazol-2-yl)benzenesulfonamide] | 30 µM
0.261 µM | 13.6 µM | O=S(=O)(Nc1nccs1)c1cc(Cl)c(N[C@H](CN2CCOCC2)c2ccccc2)cc1F [Example 75, (S)-5-chloro-2-fluoro-4-((2-morpholino-1-phenylethyl)amino)-N-(thiazol-2-yl)benzenesulfonamide 2,2,2-trifluoroacetate] | 21.7 µM
8.08 µM | 7.98 µM | O=S(=O)(Nc1nccs1)c1ccc(N[C@H]2CCCc3cccnc32)c(Cl)c1 [Example 77, (S)-3-chloro-4-((5,6,7,8-tetrahydroquinolin-8-yl)amino)-N-(thiazol-2-yl)benzenesulfonamide] | 26.1 µM
2.16 µM | 28.7 µM | C[C@H](Nc1ccc(S(=O)(=O)Nc2nccs2)cc1Cl)c1ccccn1 [Example 82, (S)-3-chloro-4-((1-(pyridin-2-yl)ethyl)amino)-N-(thiazol-2-yl)benzenesulfonamide] | 30 µM
12.3 µM | 11 µM | CC(Nc1ccc(S(=O)(=O)Nc2nccs2)cc1Cl)c1cnn(C)c1 (stereo not drawn) [Example 83, 3-chloro-4-((1-(1-methyl-1H-pyrazol-4-yl)ethyl)amino)-N-(thiazol-2-yl)benzenesulfonamide] | 30 µM
2.53 µM | 7.45 µM | C[C@H](Nc1cc(F)c(S(=O)(=O)Nc2cscn2)cc1Cl)c1ccccc1Cl [Example 92, (S)-5-chloro-4-((1-(2-chlorophenyl)ethyl)amino)-2-fluoro-N-(thiazol-4-yl)benzenesulfonamide] | 4.43 µM
0.27 µM | 0.314 µM | O=S(=O)(Nc1nccs1)c1cc(Cl)c(NC2CCCc3ccncc32)cc1F (stereo not drawn) [Example 93, 5-chloro-2-fluoro-4-((5,6,7,8-tetrahydroisoquinolin-8-yl)amino)-N-(thiazol-2-yl)benzenesulfonamide 2,2,2-trifluoroacetate] | 8.47 µM
0.423 µM | 0.142 µM | O=S(=O)(Nc1nccs1)c1cc(Cl)c(NC2CCCc3cnccc32)cc1F (stereo not drawn) [Example 94, 5-chloro-2-fluoro-4-((5,6,7,8-tetrahydroisoquinolin-5-yl)amino)-N-(thiazol-2-yl)benzenesulfonamide 2,2,2-trifluoroacetate] | 8.62 µM
0.761 µM | 8.11 µM | C[C@H](Oc1cc(F)c(S(=O)(=O)Nc2nccs2)cc1Cl)c1cc(Cl)ccc1F [Example 95, (S)-5-chloro-4-(1-(5-chloro-2-fluorophenyl)ethoxy)-2-fluoro-N-(thiazol-2-yl)benzenesulfonamide] | 30 µM
0.299 µM | 0.303 µM | O=S(=O)(Nc1nccs1)c1cc(Cl)c(NC2CCCc3ncccc32)cc1F (stereo not drawn) [Example 98, 5-chloro-2-fluoro-4-((5,6,7,8-tetrahydroquinolin-5-yl)amino)-N-(thiazol-2-yl)benzenesulfonamide formate] | 11 µM
0.373 µM | 1.94 µM | O=S(=O)(Nc1nccs1)c1ccc(NC(c2ccccc2)C2CC2)c(Cl)c1 (stereo not drawn) [Example 99, 3-chloro-4-((cyclopropyl(phenyl)methyl)amino)-N-(thiazol-2-yl)benzenesulfonamide] | 9.27 µM
0.216 µM | 0.667 µM | O=S(=O)(Nc1nccs1)c1cc(Cl)c(NC(c2ccccc2)C2CC2)cc1F (stereo not drawn) [Example 100, 5-chloro-4-((cyclopropyl(phenyl)methyl)amino)-2-fluoro-N-(thiazol-2-yl)benzenesulfonamide] | 6.42 µM
1.67 µM | 0.941 µM | O=S(=O)(Nc1nccs1)c1cc(Cl)c(N[C@@H]2CCCc3ccccc32)cc1F [Example 102, (R)-5-chloro-2-fluoro-4-((1,2,3,4-tetrahydronaphthalen-1-yl)amino)-N-(thiazol-2-yl)benzenesulfonamide] | 5.97 µM
0.533 µM | 3.7 µM | O=S(=O)(Nc1nccs1)c1cc(Cl)c(NC2(c3cccc(F)c3)CCC2)cc1F [Example 106, 5-chloro-2-fluoro-4-((1-(3-fluorophenyl)cyclobutyl)amino)-N-(thiazol-2-yl)benzenesulfonamide] | 10.1 µM
